Measured values published in patent US9315490B2, “2,5-substituted pyrimidines” (Grünenthal GmbH, priority 2014, dated 2016).

Molecular target: T1, human PDE4B1 (Homo sapiens, UniProt Q07343)
T1 construct: host or cells: Sf9 cells
Test: cAMP HTRF assay to determine the activity of hPDE4B1
Type: biochemical
Settings: inhibition of PDE4B at a test concentration of 1 μM
Outline: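 Human recombinant PDE4B1 from Sf9 cells (4.8 U) in Tris-HCl, MgCl2, DTT, Tween 20 buffer at pH 7.8 with 40 nM cAMP (final), 30 min at room temperature. Reaction stopped with 1 mM IBMX; remaining cAMP detected by HTRF (665/620 nm ratio). IC50 from eight-concentration curves.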

T1 sequence (Q07343 whole entry): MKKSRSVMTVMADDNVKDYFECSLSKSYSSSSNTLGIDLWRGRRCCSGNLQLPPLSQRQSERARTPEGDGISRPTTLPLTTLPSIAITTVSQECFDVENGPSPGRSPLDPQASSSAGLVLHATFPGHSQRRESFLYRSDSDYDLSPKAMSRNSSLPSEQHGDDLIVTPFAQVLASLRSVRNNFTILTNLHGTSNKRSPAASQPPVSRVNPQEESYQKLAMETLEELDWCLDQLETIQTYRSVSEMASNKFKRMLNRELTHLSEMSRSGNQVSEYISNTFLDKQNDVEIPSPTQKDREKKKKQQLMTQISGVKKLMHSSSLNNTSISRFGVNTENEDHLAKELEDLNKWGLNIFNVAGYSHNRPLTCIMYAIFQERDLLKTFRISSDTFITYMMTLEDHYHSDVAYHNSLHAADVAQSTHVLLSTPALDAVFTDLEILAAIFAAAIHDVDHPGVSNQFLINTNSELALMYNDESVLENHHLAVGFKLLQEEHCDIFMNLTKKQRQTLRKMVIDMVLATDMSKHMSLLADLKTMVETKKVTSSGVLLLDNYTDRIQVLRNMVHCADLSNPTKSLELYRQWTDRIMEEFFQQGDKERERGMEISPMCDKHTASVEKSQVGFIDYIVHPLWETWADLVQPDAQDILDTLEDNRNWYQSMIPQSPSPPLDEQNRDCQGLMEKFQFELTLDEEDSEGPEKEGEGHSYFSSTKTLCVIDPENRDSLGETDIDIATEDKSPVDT

Row | Structure (SMILES) | inhibition at 1 µM [%]
1 | CS(=O)(=O)c1cn(-c2ncc(-c3ccccc3)cn2)c2cc(C(=O)N3C[C@H]4C[C@@H]3CO4)ccc12 [Example 237, (1R,4R)-2-Oxa-5-azabicyclo[2.2.1]heptan-5-yl(3-(methylsulfonyl)-1-(5-phenylpyrimidin-2-yl)-1H-indol-6-yl)methanone] | 36
2 | CS(=O)(=O)c1cn(-c2ncc(-c3ccccc3F)cn2)c2cc(C(=O)N3C[C@H]4C[C@@H]3CO4)ccc12 [Example 238, (1R,4R)-2-Oxa-5-azabicyclo[2.2.1]heptan-5-yl(1-(5-(2-fluorophenyl)pyrimidin-2-yl)-3-(methylsulfonyl)-1H-indol-6-yl)methanone] | 32
3 | CS(=O)(=O)c1cn(-c2ncc(-c3ccccc3F)cn2)c2cc(C(=O)N3C[C@@H]4C[C@H]3CN4)ccc12 [Example 239, (1S,4S)-2,5-Diazabicyclo[2.2.1]heptan-2-yl(1-(5-(2-fluorophenyl)pyrimidin-2-yl)-3-(methylsulfonyl)-1H-indol-6-yl)methanone] | 78
4 | C[S+]([O-])c1cn(-c2ncc(-c3ccccn3)cn2)c2cc(C(=O)N3C[C@@H]4C[C@H]3CN4)ccc12 (stereo partly drawn) [Example 244, (1S,4S)-2,5-Diazabicyclo[2.2.1]heptan-2-yl(3-(methylsulfinyl)-1-(5-(pyridin-2-yl)pyrimidin-2-yl)-1H-indol-6-yl)methanone] | 102
5 | CN(CC1(O)CC1)C(=O)c1ccc2c([S+](C)[O-])cn(-c3ncc(-c4ccccc4F)cn3)c2c1 (centres unmarked) [Example 250, 1-(5-(2-Fluorophenyl)pyrimidin-2-yl)-N-((1-hydroxycyclopropyl)methyl)-N-methyl-3-(methylsulfinyl)-1H-indole-6-carboxamide] | 30
6 | C[C@H](O)CN(C)C(=O)c1ccc2c([S+](C)[O-])cn(-c3ncc(-c4ccccc4F)cn3)c2c1 (stereo partly drawn) [Example 251, 1-(5-(2-Fluorophenyl)pyrimidin-2-yl)-N—((S)-2-hydroxypropyl)-N-methyl-3-(methylsulfinyl)-1H-indole-6-carboxamide] | 45
7 | CCN(C)C(=O)c1ccc2c([S+](C)[O-])cn(-c3ncc(-c4ccccc4F)cn3)c2c1 (centres unmarked) [Example 356, N-Ethyl-1-(5-(2-fluorophenyl)pyrimidin-2-yl)-N-methyl-3-(methylsulfinyl)-1H-indole-6-carboxamide] | 96
8 | CCN(CC)C(=O)c1ccc2c([S+](C)[O-])cn(-c3ncc(-c4ccccc4F)cn3)c2c1 (centres unmarked) [Example 357, N,N-Diethyl-1-(5-(2-fluorophenyl)pyrimidin-2-yl)-3-(methylsulfinyl)-1H-indole-6-carboxamide] | 107
9 | CN(CC1CC1)C(=O)c1ccc2c([S+](C)[O-])cn(-c3ncc(-c4ccccc4F)cn3)c2c1 (centres unmarked) [Example 360, N-(Cyclopropylmethyl)-1-(5-(2-fluorophenyl)pyrimidin-2-yl)-N-methyl-3-(methylsulfinyl)-1H-indole-6-carboxamide] | 75
10 | CC(C)N(C(=O)c1ccc2c([S+](C)[O-])cn(-c3ncc(-c4ccccc4F)cn3)c2c1)C(C)C (centres unmarked) [Example 366, 1-(5-(2-Fluorophenyl)pyrimidin-2-yl)-N,N-diisopropyl-3-(methylsulfinyl)-1H-indole-6-carboxamide] | 30
11 | CN(C)CCN(C)C(=O)c1ccc2c([S+](C)[O-])cn(-c3ncc(-c4ccccc4F)cn3)c2c1 (centres unmarked) [Example 367, N-(2-(Dimethylamino)ethyl)-1-(5-(2-fluorophenyl)pyrimidin-2-yl)-N-methyl-3-(methylsulfinyl)-1H-indole-6-carboxamide] | 40

Further lines, results first:

Row | inhibition at 1 µM [%] | Structure (SMILES)
12 | 101 | C[S+]([O-])c1cn(-c2ncc(-c3ccccc3F)cn2)c2cc(C(=O)N3C[C@@H]4C[C@H]3CN4)ccc12 (stereo partly drawn) [Example 240, (1S,4S)-2,5-Diazabicyclo[2.2.1]heptan-2-yl(1-(5-(2-fluorophenyl)pyrimidin-2-yl)-3-(methylsulfinyl)-1H-indol-6-yl)methanone]
13 | 66 | C[S+]([O-])c1cn(-c2ncc(-c3ccccc3F)cn2)c2cc(C(=O)N3C[C@@H]4CCN[C@@H]4C3)ccc12 (stereo partly drawn) [Example 242, (1-(5-(2-Fluorophenyl)pyrimidin-2-yl)-3-(methylsulfinyl)-1H-indol-6-yl)((3aS,6aS)-hexahydropyrrolo[3,4-b]pyrrol-5(1H)-yl)methanone]
14 | 64 | C[S+]([O-])c1cn(-c2ncc(-c3ccccc3F)cn2)c2cc(C(=O)N3C[C@H]4C[C@@H]3CO4)ccc12 (stereo partly drawn) [Example 243, (1R,4R)-2-Oxa-5-azabicyclo[2.2.1]heptan-5-yl(1-(5-(2-fluorophenyl)pyrimidin-2-yl)-3-(methylsulfinyl)-1H-indol-6-yl)methanone]
15 | 77 | C[S+]([O-])c1cn(-c2ncc(-c3ccccc3F)cn2)c2cc(C(=O)N3CCC3)ccc12 (centres unmarked) [Example 355, Azetidin-1-yl(1-(5-(2-fluorophenyl)pyrimidin-2-yl)-3-(methylsulfinyl)-1H-indol-6-yl)methanone]
16 | 98 | C[S+]([O-])c1cn(-c2ncc(-c3ccccc3F)cn2)c2cc(C(=O)N3CCCCC3)ccc12 (centres unmarked) [Example 358, (1-(5-(2-Fluorophenyl)pyrimidin-2-yl)-3-(methylsulfinyl)-1H-indol-6-yl)(piperidin-1-yl)methanone]
17 | 90 | CC1CCCN1C(=O)c1ccc2c([S+](C)[O-])cn(-c3ncc(-c4ccccc4F)cn3)c2c1 (centres unmarked) [Example 359, (1-(5-(2-Fluorophenyl)pyrimidin-2-yl)-3-(methylsulfinyl)-1H-indol-6-yl)(2-methylpyrrolidin-1-yl)methanone]
18 | 40 | CC1CCCCN1C(=O)c1ccc2c([S+](C)[O-])cn(-c3ncc(-c4ccccc4F)cn3)c2c1 (centres unmarked) [Example 361, (1-(5-(2-Fluorophenyl)pyrimidin-2-yl)-3-(methylsulfinyl)-1H-indol-6-yl)(2-methylpiperidin-1-yl)methanone]
19 | 78 | CC1CCCN(C(=O)c2ccc3c([S+](C)[O-])cn(-c4ncc(-c5ccccc5F)cn4)c3c2)C1 (centres unmarked) [Example 362, (1-(5-(2-Fluorophenyl)pyrimidin-2-yl)-3-(methylsulfinyl)-1H-indol-6-yl)(3-methylpiperidin-1-yl)methanone]
20 | 41 | CC1CCN(C(=O)c2ccc3c([S+](C)[O-])cn(-c4ncc(-c5ccccc5F)cn4)c3c2)CC1 (centres unmarked) [Example 363, (1-(5-(2-Fluorophenyl)pyrimidin-2-yl)-3-(methylsulfinyl)-1H-indol-6-yl)(4-methylpiperidin-1-yl)methanone]
21 | 73 | C[S+]([O-])c1cn(-c2ncc(-c3ccccc3F)cn2)c2cc(C(=O)N3CCCCCC3)ccc12 (centres unmarked) [Example 364, Azepan-1-yl(1-(5-(2-fluorophenyl)pyrimidin-2-yl)-3-(methylsulfinyl)-1H-indol-6-yl)methanone]
22 | 54 | CN1CCN(C(=O)c2ccc3c([S+](C)[O-])cn(-c4ncc(-c5ccccc5F)cn4)c3c2)CC1 (centres unmarked) [Example 365, (1-(5-(2-Fluorophenyl)pyrimidin-2-yl)-3-(methylsulfinyl)-1H-indol-6-yl)(4-methylpiperazin-1-yl)methanone]
23 | 103 | C[S+]([O-])c1cn(-c2ncc(-c3ccccc3F)cn2)c2cc(C(=O)N3CCSCC3)ccc12 (centres unmarked) [Example 368, (1-(5-(2-Fluorophenyl)pyrimidin-2-yl)-3-(methylsulfinyl)-1H-indol-6-yl)(thiomorpholino)methanone]
